# Data: patent US12662479B2 (Foghorn Therapeutics Inc., priority 2020, dated 2026)
# Legend:
# [1] = molecular target: T1, HiBit-BRG1 fusion protein (Homo sapiens, UniProt P51532); experiment: HiBiT-BRG1 cell-based degradation assay (Nano-Glo HiBiT Lytic Detection, 24 h); settings: HeLa cells expressing HiBit-BRG1 and LgBit; for DC50: read-out: BRG1 HiBit Degradation IC50; for Dmax: HeLa, top dose 30 μM, read-out: BRG1 HiBit Degradation Maximum measured
# T1 construct: expressed in transfected cells
# T1 sequence (P51532 whole entry, the tested form may be a part): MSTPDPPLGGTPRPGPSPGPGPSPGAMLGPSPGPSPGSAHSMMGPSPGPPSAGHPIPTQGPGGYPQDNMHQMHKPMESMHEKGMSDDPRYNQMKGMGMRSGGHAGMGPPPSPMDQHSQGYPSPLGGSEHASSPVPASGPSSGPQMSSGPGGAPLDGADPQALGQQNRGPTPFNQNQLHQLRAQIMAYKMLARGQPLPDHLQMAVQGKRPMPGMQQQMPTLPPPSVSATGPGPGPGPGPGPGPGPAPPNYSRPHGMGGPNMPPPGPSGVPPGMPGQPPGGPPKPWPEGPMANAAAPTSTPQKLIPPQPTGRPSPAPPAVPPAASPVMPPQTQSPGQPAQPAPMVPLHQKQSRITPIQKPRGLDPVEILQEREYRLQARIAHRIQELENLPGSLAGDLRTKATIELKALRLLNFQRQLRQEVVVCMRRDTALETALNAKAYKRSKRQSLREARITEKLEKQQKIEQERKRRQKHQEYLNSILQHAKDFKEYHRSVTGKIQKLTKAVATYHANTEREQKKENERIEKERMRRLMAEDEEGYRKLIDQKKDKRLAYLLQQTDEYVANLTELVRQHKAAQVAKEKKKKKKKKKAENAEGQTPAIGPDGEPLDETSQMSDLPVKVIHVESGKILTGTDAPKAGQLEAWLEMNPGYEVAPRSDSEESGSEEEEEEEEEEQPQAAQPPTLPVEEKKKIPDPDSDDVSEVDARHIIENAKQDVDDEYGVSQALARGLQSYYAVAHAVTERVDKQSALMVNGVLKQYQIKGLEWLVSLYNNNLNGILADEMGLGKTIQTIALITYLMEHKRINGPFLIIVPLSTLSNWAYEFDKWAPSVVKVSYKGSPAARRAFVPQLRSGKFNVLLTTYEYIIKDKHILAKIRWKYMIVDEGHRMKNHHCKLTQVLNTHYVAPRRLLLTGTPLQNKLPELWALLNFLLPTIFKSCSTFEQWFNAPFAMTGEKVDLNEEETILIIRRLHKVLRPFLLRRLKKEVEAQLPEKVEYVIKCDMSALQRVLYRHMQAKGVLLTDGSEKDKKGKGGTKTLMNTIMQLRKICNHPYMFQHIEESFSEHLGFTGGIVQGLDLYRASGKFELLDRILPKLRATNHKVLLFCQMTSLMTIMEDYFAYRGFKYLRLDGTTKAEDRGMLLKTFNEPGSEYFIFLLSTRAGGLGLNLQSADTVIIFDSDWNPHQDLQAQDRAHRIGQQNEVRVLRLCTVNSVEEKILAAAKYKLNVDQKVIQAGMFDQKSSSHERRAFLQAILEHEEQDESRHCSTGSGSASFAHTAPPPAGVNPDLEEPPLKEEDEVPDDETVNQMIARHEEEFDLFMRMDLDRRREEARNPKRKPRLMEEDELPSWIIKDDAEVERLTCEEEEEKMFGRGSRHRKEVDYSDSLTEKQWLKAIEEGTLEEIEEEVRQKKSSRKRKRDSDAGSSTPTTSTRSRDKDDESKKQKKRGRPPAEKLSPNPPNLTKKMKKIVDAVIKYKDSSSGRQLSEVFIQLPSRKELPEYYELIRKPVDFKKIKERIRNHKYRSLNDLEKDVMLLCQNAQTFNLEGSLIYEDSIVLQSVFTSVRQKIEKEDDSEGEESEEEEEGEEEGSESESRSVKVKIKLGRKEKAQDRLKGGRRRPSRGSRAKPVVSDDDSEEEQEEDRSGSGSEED
# Summary of the method: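 Degradation is scaled from DMSO-treated cells (0%) to cells given 2 μM of a known BRM/BRG1 degrader (100%). HeLa cells stably carrying HiBiT-BRG1 plus LgBiT (5000/well) were lysed with Nano-Glo HiBiT detection reagent, shaken 10 min at RT, and luminescence read.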
# [2] = molecular target: T2, HiBit-BRM fusion protein (Homo sapiens, UniProt P51531); experiment: HiBiT-BRM cell-based degradation assay (Nano-Glo HiBiT Lytic Detection, 24 h); settings: HeLa cells expressing HiBiT-BRM; for DC50: read-out: BRM HiBit Degradation IC50; for BRM HiBit Degradation Maximum measured: top dose 30 μM
# T2 construct: expressed in transfected cells
# T2 sequence (P51531 whole entry, the tested form may be a part): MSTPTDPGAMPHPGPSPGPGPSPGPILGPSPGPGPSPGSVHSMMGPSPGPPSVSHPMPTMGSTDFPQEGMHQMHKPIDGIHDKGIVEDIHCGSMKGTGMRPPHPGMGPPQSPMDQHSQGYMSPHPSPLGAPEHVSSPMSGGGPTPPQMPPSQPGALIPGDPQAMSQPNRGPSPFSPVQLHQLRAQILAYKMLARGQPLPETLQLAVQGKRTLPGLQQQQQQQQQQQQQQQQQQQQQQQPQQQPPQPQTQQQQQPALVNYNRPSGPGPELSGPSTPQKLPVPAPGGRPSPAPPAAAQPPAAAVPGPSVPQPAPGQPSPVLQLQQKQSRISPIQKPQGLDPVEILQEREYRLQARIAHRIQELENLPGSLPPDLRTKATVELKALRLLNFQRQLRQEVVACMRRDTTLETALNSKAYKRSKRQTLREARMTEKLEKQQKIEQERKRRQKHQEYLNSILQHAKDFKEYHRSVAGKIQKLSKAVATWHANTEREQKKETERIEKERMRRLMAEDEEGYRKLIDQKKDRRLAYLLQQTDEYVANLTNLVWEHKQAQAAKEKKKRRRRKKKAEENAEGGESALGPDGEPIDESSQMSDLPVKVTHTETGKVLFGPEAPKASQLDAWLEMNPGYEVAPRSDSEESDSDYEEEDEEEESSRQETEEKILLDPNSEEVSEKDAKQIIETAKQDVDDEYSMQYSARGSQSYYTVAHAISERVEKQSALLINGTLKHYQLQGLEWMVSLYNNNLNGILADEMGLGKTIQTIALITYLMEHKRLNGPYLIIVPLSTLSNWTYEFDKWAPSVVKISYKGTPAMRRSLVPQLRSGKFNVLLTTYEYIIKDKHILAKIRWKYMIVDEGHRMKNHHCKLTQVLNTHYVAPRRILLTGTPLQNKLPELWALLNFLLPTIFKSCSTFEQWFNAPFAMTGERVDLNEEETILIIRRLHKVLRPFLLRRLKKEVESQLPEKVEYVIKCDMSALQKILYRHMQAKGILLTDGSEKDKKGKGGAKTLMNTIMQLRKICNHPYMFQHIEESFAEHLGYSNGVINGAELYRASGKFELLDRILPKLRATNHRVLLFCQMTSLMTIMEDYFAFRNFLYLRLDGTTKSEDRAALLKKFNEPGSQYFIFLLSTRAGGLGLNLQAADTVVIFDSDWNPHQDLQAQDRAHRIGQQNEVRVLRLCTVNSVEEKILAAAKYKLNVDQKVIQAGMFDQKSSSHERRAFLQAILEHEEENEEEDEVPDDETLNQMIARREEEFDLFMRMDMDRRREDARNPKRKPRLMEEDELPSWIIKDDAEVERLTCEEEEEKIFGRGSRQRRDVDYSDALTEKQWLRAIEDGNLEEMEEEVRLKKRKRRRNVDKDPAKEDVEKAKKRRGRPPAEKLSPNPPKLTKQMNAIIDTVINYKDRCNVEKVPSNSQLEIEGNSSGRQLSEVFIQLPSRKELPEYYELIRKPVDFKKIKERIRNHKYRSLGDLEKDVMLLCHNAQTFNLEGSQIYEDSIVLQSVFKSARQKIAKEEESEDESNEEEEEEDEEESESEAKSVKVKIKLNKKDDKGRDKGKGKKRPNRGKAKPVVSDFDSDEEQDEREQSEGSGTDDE
# Summary of the method: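 Stable HiBiT-BRM HeLa line; 24 h compound exposure, top final 30 μM, 3-fold, 10 pts in duplicate. Lytic HiBiT/LgBiT luminescence readout. % degradation vs DMSO (0%) and 2 μM known BRM/BRG1 degrader (100%).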
DC50 [1] [µM],Dmax [1] [%],DC50 [2] [µM],BRM HiBit Degradation Maximum measured [2],Structure (SMILES)
> 10,< 50,> 10,C (‘C’ = Maximum degradation <50%),"CS(=O)(=O)n1ccc(C(=O)NC(CCOCCCC(=O)NC2CCN(CCOc3ccc4c(c3)C(=O)N(C3CCC(=O)NC3=O)C4=O)CC2)C(=O)Nc2nc(-c3ccccc3)cs2)c1 [Compound 279, (2S)-4-(3-[[1-(2-[[2-(2,6-dioxopiperidin-3-yl)-1,3-dioxoisoindol-5-yl]oxylethyl)piperidin-4-yl]carbamoyl]propoxy)-2-[(1-methanesulfonylpyrrol-3-yl)formamido]-N-(4-phenyl-1,3-thiazol-2-yl)butanamide; formic acid]"
> 10,< 50,> 10,C (‘C’ = Maximum degradation <50%),"CS(=O)(=O)n1ccc(C(=O)N[C@@H](CCOCCCC(=O)NCCOc2ccc3c(c2)C(=O)N(C2CCC(=O)NC2=O)C3=O)C(=O)Nc2nc(-c3ccccc3)cs2)c1 (stereo partly drawn) [Compound 280, (2S)-4-[3-[(2-[[2-(2,6-dioxopiperidin-3-yl)-1,3-dioxoisoindol-5-yl]oxy]ethyl)carbamoyl]propoxy]-2-[(1-methanesulfonylpyrrol-3-yl)formamido]-N-(4-phenyl-1,3-thiazol-2-yl)butanamide]"
> 10,< 50,> 10,C (‘C’ = Maximum degradation <50%),"CS(=O)(=O)n1ccc(C(=O)N[C@@H](CCOCCCC(=O)NCCCCCCCCNc2cccc3c2C(=O)N(C2CCC(=O)NC2=O)C3=O)C(=O)Nc2nc(-c3ccccc3)cs2)c1 (stereo partly drawn) [Compound 281, (2S)-4-[3-[(8-[[2-(2,6-dioxopiperidin-3-yl)-1,3-dioxoisoindol-4-yl]amino]octyl)carbamoyl]propoxy]-2-[(1-methanesulfonylpyrrol-3-yl)formamido]-N-(4-phenyl-1,3-thiazol-2-yl)butanamide]"
> 10,< 50,> 10,C (‘C’ = Maximum degradation <50%),"CS(=O)(=O)n1ccc(C(=O)N[C@@H](CCOCCCC(=O)NCCCCNc2ccc3c(c2)C(=O)N(C2CCC(=O)NC2=O)C3=O)C(=O)Nc2nc(-c3ccccc3)cs2)c1 (stereo partly drawn) [Compound 282, (2S)-4-[3-[(4-[[2-(2,6-dioxopiperidin-3-yl)-1,3-dioxoisoindol-5-yl]amino]butyl)carbamoyl]propoxy]-2-[(1-methanesulfonylpyrrol-3-yl)formamido]-N-(4-phenyl-1,3-thiazol-2-yl)butanamide]"
> 10,< 50,> 10,C (‘C’ = Maximum degradation <50%),"CS(=O)(=O)n1ccc(C(=O)N[C@@H](CCOCCCC(=O)NCCCCCCNc2ccc3c(c2)C(=O)N(C2CCC(=O)NC2=O)C3=O)C(=O)Nc2nc(-c3ccccc3)cs2)c1 (stereo partly drawn) [Compound 283, (2S)-4-[3-[(6-[[2-(2,6-dioxopiperidin-3-yl)-1,3-dioxoisoindol-5-yl]amino]hexyl)carbamoyl]propoxy]-2-[(1-methanesulfonylpyrrol-3-yl)formamido]-N-(4-phenyl-1,3-thiazol-2-yl)butanamide]"
> 10,< 50,> 10,C (‘C’ = Maximum degradation <50%),"CS(=O)(=O)n1ccc(C(=O)N[C@@H](CCCCNC(=O)C2CC2CNC(=O)COc2cccc3c2C(=O)N(C2CCC(=O)NC2=O)C3=O)C(=O)Nc2nc(-c3ccccc3)cs2)c1 (stereo partly drawn) [Compound 284, (2S)-6-([2-[(2-[[2-(2,6-dioxopiperidin-3-yl)-1,3-dioxoisoindol-4-yl]oxy]acetamido)methyl]cyclopropyl]formamido)-2-[(1-methanesulfonylpyrrol-3-yl)formamido]-N-(4-phenyl-1,3-thiazol-2-yl)hexanamide]"
> 10,< 50,> 10,C (‘C’ = Maximum degradation <50%),"CS(=O)(=O)n1ccc(C(=O)N[C@@H](CCOCCCC(=O)NCCOc2cccc(OCCNc3ccc4c(c3)C(=O)N(C3CCC(=O)NC3=O)C4=O)c2)C(=O)Nc2nc(-c3ccccc3)cs2)c1 (stereo partly drawn) [Compound 285, (2S)-4-[3-([2-[3-(2-[[2-(2,6-dioxopiperidin-3-yl)-1,3-dioxoisoindol-5-yl]amino]ethoxy)phenoxy]ethyl]carbamoyl)propoxy]-2-[(1-methanesulfonylpyrrol-3-yl)formamido]-N-(4-phenyl-1,3-thiazol-2-yl)butanamide]"
> 10,< 50,> 10,C (‘C’ = Maximum degradation <50%),"CS(=O)(=O)n1ccc(C(=O)N[C@@H](CCOCCCC(=O)NCCNc2ccc3c(c2)C(=O)N(C2CCC(=O)NC2=O)C3=O)C(=O)Nc2nc(-c3ccccc3)cs2)c1 (stereo partly drawn) [Compound 286, (2S)-4-[3-[(2-[[2-(2,6-dioxopiperidin-3-yl)-1,3-dioxoisoindol-5-yl]amino]ethyl)carbamoyl]propoxy]-2-[(1-methanesulfonylpyrrol-3-yl)formamido]-N-(4-phenyl-1,3-thiazol-2-yl)butanamide]"
> 10,< 50,> 10,C (‘C’ = Maximum degradation <50%),"CS(=O)(=O)n1ccc(C(=O)N[C@@H](CCOCCCC(=O)NCCCCCNc2ccc3c(c2)C(=O)N(C2CCC(=O)NC2=O)C3=O)C(=O)Nc2nc(-c3ccccc3)cs2)c1 (stereo partly drawn) [Compound 287, (2S)-4-[3-[(5-[[2-(2,6-dioxopiperidin-3-yl)-1,3-dioxoisoindol-5-yl]amino]pentyl)carbamoyl]propoxy]-2-[(1-methanesulfonylpyrrol-3-yl)formamido]-N-(4-phenyl-1,3-thiazol-2-yl)butanamide]"
> 10,< 50,> 10,C (‘C’ = Maximum degradation <50%),"CS(=O)(=O)n1ccc(C(=O)N[C@@H](CCCCNC(=O)CCOCCOCCOc2cccc3c2C(=O)N(C2CCC(=O)NC2=O)C3=O)C(=O)Nc2nc(-c3ccccc3)cs2)c1 (stereo partly drawn) [Compound 288, (2S)-6-[3-[2-(2-[[2-(2,6-dioxopiperidin-3-yl)-1,3-dioxoisoindol-4-yl]oxy]ethoxy)ethoxy]propanamido]-2-[(1-methanesulfonylpyrrol-3-yl)formamido]-N-(4-phenyl-1,3-thiazol-2-yl)hexanamide]"
> 10,< 50,> 10,C (‘C’ = Maximum degradation <50%),"CS(=O)(=O)n1ccc(C(=O)N[C@@H](CCCCNC(=O)CCCCCCCOc2cccc3c2C(=O)N(C2CCC(=O)NC2=O)C3=O)C(=O)Nc2nc(-c3ccccc3)cs2)c1 (stereo partly drawn) [Compound 289, 8-[[2-(2,6-dioxopiperidin-3-yl)-1,3-dioxoisoindol-4-yl]oxy]-N-[(5S)-5-[(1-methanesulfonylpyrrol-3-yl)formamido]-5-[(4-phenyl-1,3-thiazol-2-yl)carbamoyl]pentyl]octanamide]"
> 10,< 50,> 10,C (‘C’ = Maximum degradation <50%),"CS(=O)(=O)n1ccc(C(=O)N[C@@H](CCCCNC(=O)CCCCCCOc2cccc3c2C(=O)N(C2CCC(=O)NC2=O)C3=O)C(=O)Nc2nc(-c3ccccc3)cs2)c1 (stereo partly drawn) [Compound 290, 7-[[2-(2,6-dioxopiperidin-3-yl)-1,3-dioxoisoindol-4-yl]oxy]-N-[(5S)-5-[(1-methanesulfonylpyrrol-3-yl)formamido]-5-[(4-phenyl-1,3-thiazol-2-yl)carbamoyl]pentyl]heptanamide]"
> 10,< 50,> 10,C (‘C’ = Maximum degradation <50%),"CS(=O)(=O)n1ccc(C(=O)N[C@@H](CCCCNC(=O)CCOCCOCCOc2ccc3c(c2)C(=O)N(C2CCC(=O)NC2=O)C3=O)C(=O)Nc2nc(-c3ccccc3)cs2)c1 (stereo partly drawn) [Compound 291, (2S)-6-[3-[2-(2-[[2-(2,6-dioxopiperidin-3-yl)-1,3-dioxoisoindol-5-yl]oxy]ethoxy)ethoxy]propanamido]-2-[(1-methanesulfonylpyrrol-3-yl)formamido]-N-(4-phenyl-1,3-thiazol-2-yl)hexanamide]"
> 10,< 50,> 10,C (‘C’ = Maximum degradation <50%),"CS(=O)(=O)n1ccc(C(=O)N[C@@H](CCCCNC(=O)CCOCCOCCNc2ccc3c(c2)C(=O)N(C2CCC(=O)NC2=O)C3=O)C(=O)Nc2nc(-c3ccccc3)cs2)c1 (stereo partly drawn) [Compound 292, (2S)-6-[3-[2-(2-[[2-(2,6-dioxopiperidin-3-yl)-1,3-dioxoisoindol-5-yl]amino]ethoxy)ethoxy]propanamido]-2-[(1-methanesulfonylpyrrol-3-yl)formamido]-N-(4-phenyl-1,3-thiazol-2-yl)hexanamide]"
> 10,< 50,> 10,C (‘C’ = Maximum degradation <50%),"CS(=O)(=O)n1ccc(C(=O)N[C@@H](CCCCNC(=O)CCN2CC3(C2)CN(c2ccc4c(c2)C(=O)N(C2CCC(=O)NC2=O)C4=O)C3)C(=O)Nc2nc(-c3ccccc3)cs2)c1 (stereo partly drawn) [Compound 294, (2S)-6-(3-[6-[2-(2,6-dioxopiperidin-3-yl)-1,3-dioxoisoindol-5-yl]-2,6-diazaspiro[3.3]heptan-2-yl]propanamido)-2-[(1-methanesulfonylpyrrol-3-yl)formamido]-N-(4-phenyl-1,3-thiazol-2-yl)hexanamide]"
